How the values were obtained:
[1] = Inhibition of Haemonchus contortus phosphoethanolamine methyltransferase2 conversion of phosphomonomethylethanolamine to phosphodimethylethanolamine by radiochemical assay in presence of S-adenosylmethionine
[2] = Inhibition of Haemonchus contortus phosphoethanolamine methyltransferase1-mediated conversion of phosphoethanolamine to phosphomonomethylethanolamine by radiochemical assay in presence of S-adenosylmethionine
[3] = target: Histamine N-methyltransferase (Homo sapiens, UniProt P50135); test: Inhibition of histamine N-methyltransferase by radiochemical assay
[4] = target: T1, Phosphoethanolamine N-methyltransferase (Plasmodium falciparum, UniProt Q8IDQ9); test: Inhibition of Plasmodium falciparum phosphoethanolamine methyltransferase using phospethanolamine as substrate by radiochemical assay in presence of S-adenosylmethionine
T1 sequence (Q8IDQ9 whole entry): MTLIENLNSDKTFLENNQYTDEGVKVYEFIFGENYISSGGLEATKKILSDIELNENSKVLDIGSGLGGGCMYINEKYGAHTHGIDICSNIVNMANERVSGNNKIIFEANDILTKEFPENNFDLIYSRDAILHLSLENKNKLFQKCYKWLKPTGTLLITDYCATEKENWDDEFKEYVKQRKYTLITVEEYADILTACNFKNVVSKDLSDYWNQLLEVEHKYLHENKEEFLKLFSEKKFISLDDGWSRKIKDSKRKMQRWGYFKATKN

Chain of Histamine N-methyltransferase (P50135 whole entry): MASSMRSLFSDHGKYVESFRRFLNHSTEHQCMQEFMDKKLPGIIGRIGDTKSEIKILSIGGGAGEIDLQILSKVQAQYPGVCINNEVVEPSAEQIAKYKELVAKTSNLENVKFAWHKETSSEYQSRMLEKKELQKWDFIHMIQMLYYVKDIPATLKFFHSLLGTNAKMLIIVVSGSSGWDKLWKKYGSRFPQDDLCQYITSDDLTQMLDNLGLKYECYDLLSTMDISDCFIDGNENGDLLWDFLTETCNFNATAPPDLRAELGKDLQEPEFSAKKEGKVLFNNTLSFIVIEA

| Structure (SMILES) | IC50 [1] [µM] | IC50 [2] [µM] | Ki [3] [µM] | IC50 [4] [µM] |
| --- | --- | --- | --- | --- |
| CCN(CC)Cc1cc(Nc2ccnc3cc(Cl)ccc23)ccc1O | 3000 | 3000 | 0.019 | – |
| CCN(CC)CCCC(C)Nc1ccnc2cc(Cl)ccc12 (stereo not given) [CHLOROQUINE] | – | – | – | 554 |
| COc1cc(NC(C)CCCN)c2ncccc2c1 (stereo not given) [PRIMAQUINE] | – | – | – | 460 |

Reference: ChEMBL document CHEMBL2057181 (Bioorg Med Chem Lett, 2012)
